From ChEMBL document CHEMBL1250502, “An alignment independent 3D QSAR study of the antiproliferative activity of 1,2,4,5-tetraoxanes” (Eur J Med Chem, 2010)

Columns and labels:
HeLa = experiment: Cytotoxicity against human HeLa cells; format: functional, cell-based; conditions: for IC50: Homo sapiens, HeLa; for pIC50: hela
[1] = Cytotoxicity against human Fem-X cells; format: functional, cell-based; conditions: for IC50: Homo sapiens, Fem-X; for pIC50: fem-x

SMILES | IC50 (HeLa; read-out: pIC50 (converted)) [µM] | IC50 ([1]; read-out: pIC50 (converted)) [µM] | IC50 (HeLa; read-out: IC50) [µM] | IC50 ([1]; read-out: IC50) [µM] | pIC50 (HeLa) | pIC50 [1]
CCCNC(=O)CC[C@@H](C)[C@H]1CC[C@H]2[C@@H]3CC[C@@H]4C[C@]5(CC[C@]4(C)[C@H]3C[C@H](OC(C)=O)[C@]12C)OO[C@@]1(CC[C@@]2(C)[C@H](CC[C@@H]3[C@@H]2C[C@H](OC(C)=O)[C@]2(C)[C@@H]([C@H](C)CCC(=O)NCCC)CC[C@@H]32)C1)OO5 | 33.1 | 22.9 |  |  |  | 
COC(=O)CC[C@@H](C)[C@H]1CC[C@H]2[C@@H]3CC[C@@H]4CC5(CC[C@]4(C)[C@H]3C[C@H](OC(C)=O)[C@]12C)OOC1(CCC2(CCCC2)CC1)OO5 | 10.7 | 42.7 |  |  |  | 
COC(=O)CC[C@@H](C)[C@H]1CC[C@H]2[C@@H]3CC[C@@H]4CC5(CC[C@]4(C)[C@H]3C[C@H](OC(C)=O)[C@]12C)OOC1(CCC2(CCCCCCC2)CC1)OO5 | 10.2 | 51.3 |  |  |  | 
CCCN(CCC)C(=O)CC[C@@H](C)[C@H]1CC[C@H]2[C@@H]3CC[C@@H]4C[C@]5(CC[C@]4(C)[C@H]3C[C@H](OC(C)=O)[C@]12C)OO[C@@]1(CC[C@@]2(C)[C@H](CC[C@@H]3[C@@H]2C[C@H](OC(C)=O)[C@]2(C)[C@@H]([C@H](C)CCC(=O)N(CCC)CCC)CC[C@@H]32)C1)OO5 | 105 | 47.9 |  |  |  | 
CC(=O)O[C@H]1C[C@H]2[C@@H](CC[C@@H]3C[C@]4(CC[C@@]32C)OO[C@@]2(CC[C@@]3(C)[C@H](CC[C@@H]5[C@@H]3C[C@H](OC(C)=O)[C@]3(C)[C@@H]([C@H](C)CCC(=O)N6CCCCC6)CC[C@@H]53)C2)OO4)[C@@H]2CC[C@H]([C@H](C)CCC(=O)N3CCCCC3)[C@@]12C | 89.1 | 79.4 |  |  |  | 
CC(=O)O[C@H]1C[C@H]2[C@@H](CC[C@@H]3C[C@]4(CC[C@@]32C)OO[C@@]2(CC[C@@]3(C)[C@H](CC[C@@H]5[C@@H]3C[C@H](OC(C)=O)[C@]3(C)[C@@H]([C@H](C)CCC=O)CC[C@@H]53)C2)OO4)[C@@H]2CC[C@H]([C@H](C)CCC=O)[C@@]12C | 3.72 | 3.09 |  |  |  | 
CC(=O)O[C@H]1C[C@H]2[C@@H](CC[C@@H]3C[C@]4(CC[C@@]32C)OO[C@@]2(CC[C@@]3(C)[C@H](CC[C@@H]5[C@@H]3C[C@H](OC(C)=O)[C@]3(C)[C@@H]([C@H](C)CCC(=O)O)CC[C@@H]53)C2)OO4)[C@@H]2CC[C@H]([C@H](C)CCC(=O)O)[C@@]12C | 5.25 | 4.17 |  |  |  | 
COC(=O)CNC(=O)CC[C@@H](C)[C@H]1CC[C@H]2[C@@H]3CC[C@@H]4C[C@]5(CC[C@]4(C)[C@H]3C[C@H](OC(C)=O)[C@]12C)OO[C@]1(CC[C@@]2(C)[C@H](CC[C@@H]3[C@@H]2C[C@H](OC(C)=O)[C@]2(C)[C@@H]([C@H](C)CCC(=O)NCC(=O)OC)CC[C@@H]32)C1)OO5 | 3.63 | 4.68 |  |  |  | 
CC(=O)O[C@H]1C[C@H]2[C@@H](CC[C@@H]3C[C@]4(CC[C@@]32C)OO[C@]2(CC[C@@]3(C)[C@H](CC[C@@H]5[C@@H]3C[C@H](OC(C)=O)[C@]3(C)[C@@H]([C@H](C)CCC(=O)N6CCCCC6)CC[C@@H]53)C2)OO4)[C@@H]2CC[C@H]([C@H](C)CCC(=O)N3CCCCC3)[C@@]12C | 120 | 102 |  |  |  | 
CC(=O)O[C@H]1C[C@H]2[C@@H](CC[C@@H]3C[C@]4(CC[C@@]32C)OO[C@]2(CC[C@@]3(C)[C@H](CC[C@@H]5[C@@H]3C[C@H](OC(C)=O)[C@]3(C)[C@@H]([C@H](C)CCC(N)=O)CC[C@@H]53)C2)OO4)[C@@H]2CC[C@H]([C@H](C)CCC(N)=O)[C@@]12C | 6.03 | 6.17 |  |  |  | 
CCCNC(=O)CC[C@@H](C)[C@H]1CC[C@H]2[C@@H]3CC[C@@H]4C[C@]5(CC[C@]4(C)[C@H]3C[C@H](OC(C)=O)[C@]12C)OO[C@]1(CC[C@@]2(C)[C@H](CC[C@@H]3[C@@H]2C[C@H](OC(C)=O)[C@]2(C)[C@@H]([C@H](C)CCC(=O)NCCC)CC[C@@H]32)C1)OO5 | 8.32 | 25.7 |  |  |  | 
CC(=O)O[C@H]1C[C@H]2[C@@H](CC[C@@H]3C[C@]4(CC[C@@]32C)OO[C@]2(CC[C@@]3(C)[C@H](CC[C@@H]5[C@@H]3C[C@H](OC(C)=O)[C@]3(C)[C@@H]([C@H](C)CCC(=O)O)CC[C@@H]53)C2)OO4)[C@@H]2CC[C@H]([C@H](C)CCC(=O)O)[C@@]12C | 9.12 | 7.59 |  |  |  | 
COC(=O)CC[C@@H](C)[C@H]1CC[C@H]2[C@@H]3CC[C@@H]4C[C@]5(CC[C@]4(C)[C@H]3C[C@H](OC(C)=O)[C@]12C)OO[C@]1(CC[C@@]2(C)[C@H](CC[C@@H]3[C@@H]2C[C@H](OC(C)=O)[C@]2(C)[C@@H]([C@H](C)CCC(=O)OC)CC[C@@H]32)C1)OO5 | 20.4 | 19.5 |  |  |  | 
COC(=O)CC[C@@H](C)[C@H]1CC[C@H]2[C@@H]3CC[C@@H]4CC5(CC[C@]4(C)[C@H]3C[C@H](OC(C)=O)[C@]12C)OOC1(CCCCC1)OO5 | 18.6 | 52.5 |  |  |  | 
CCCN(CCC)C(=O)CC[C@@H](C)[C@H]1CC[C@H]2[C@@H]3CC[C@@H]4CC5(CC[C@]4(C)[C@H]3C[C@H](OC(C)=O)[C@]12C)OOC1(CCCCC1)OO5 | 28.2 | 38.9 |  |  |  | 
CC(=O)O[C@H]1C[C@H]2[C@@H](CC[C@@H]3CC4(CC[C@@]32C)OOC2(CCCCC2)OO4)[C@@H]2CC[C@H]([C@H](C)CCC(N)=O)[C@@]12C | 5.25 | 6.03 |  |  |  | 

SMILES | IC50 (HeLa; read-out: pIC50 (converted)) [µM] | IC50 ([1]; read-out: pIC50 (converted)) [µM] | IC50 (HeLa; read-out: IC50) [µM] | IC50 ([1]; read-out: IC50) [µM] | pIC50 (HeLa) | pIC50 [1]
CCCNC(=O)CC[C@@H](C)[C@H]1CC[C@H]2[C@@H]3CC[C@@H]4CC5(CC[C@]4(C)[C@H]3C[C@H](OC(C)=O)[C@]12C)OOC1(CCCCC1)OO5 | 6.46 | 13.2 |  |  |  | 
CC(=O)O[C@H]1C[C@H]2[C@@H](CC[C@@H]3CC4(CC[C@@]32C)OOC2(CCCCC2)OO4)[C@@H]2CC[C@H]([C@H](C)CCC(=O)N3CCCCC3)[C@@]12C | 7.24 | 9.12 |  |  |  | 
CCCNC(=O)C1CCC2(CC1)OOC1(CCCCC1)OO2 | 117 | 102 |  |  |  | 
CN(C)CCNC(=O)C1CCC2(CC1)OOC1(CCCCC1)OO2 | 135 | 120 |  |  |  | 
COC(=O)C1CCC2(CC1)OOC1(CCCCC1)OO2 | 75.9 | 72.4 |  |  |  | 
O=C(O)C1CCC2(CC1)OOC1(CCCCC1)OO2 | 120 | 155 |  |  |  | 
CCC1CCC2(CC1)OOC1(CC[C@@]3(C)[C@H](CC[C@@H]4[C@@H]3C[C@H](OC(C)=O)[C@]3(C)[C@@H]([C@H](C)CCC(N)=O)CC[C@@H]43)C1)OO2 (stereo partly specified) | 5.25 | 5.01 | 5.3 | 4.3 |  | 
CCC1CCC2(CC1)OOC1(CC[C@@]3(C)[C@H](CC[C@@H]4[C@@H]3C[C@H](OC(C)=O)[C@]3(C)[C@@H]([C@H](C)CCC(=O)NC)CC[C@@H]43)C1)OO2 (stereo partly specified) | 4.9 | 6.92 | 6.9 | 8.82 |  | 
CCNC(=O)CC[C@@H](C)[C@H]1CC[C@H]2[C@@H]3CC[C@@H]4CC5(CC[C@]4(C)[C@H]3C[C@H](OC(C)=O)[C@]12C)OOC1(CCC(CC)CC1)OO5 (stereo partly specified) | 6.92 | 6.76 | 6.7 | 7 |  | 
CCC1CCC2(CC1)OOC1(CC[C@@]3(C)[C@H](CC[C@@H]4[C@@H]3C[C@H](OC(C)=O)[C@]3(C)[C@@H]([C@@H](C)CCC(N)=O)CC[C@@H]43)C1)OO2 (stereo partly specified) | 4.07 | 4.27 | 4.9 | 4.5 |  | 
CCC1CCC2(CC1)OOC1(CC[C@@]3(C)[C@H](CC[C@@H]4[C@@H]3C[C@H](OC(C)=O)[C@]3(C)[C@@H]([C@@H](C)CCC(=O)NC)CC[C@@H]43)C1)OO2 (stereo partly specified) | 6.76 | 4.47 | 6.1 | 5 |  | 
CCNC(=O)CC[C@H](C)[C@H]1CC[C@H]2[C@@H]3CC[C@@H]4CC5(CC[C@]4(C)[C@H]3C[C@H](OC(C)=O)[C@]12C)OOC1(CCC(CC)CC1)OO5 (stereo partly specified) | 6.92 | 8.91 | 6.9 | 6.7 |  | 
CC(=O)O[C@H]1C[C@H]2[C@@H](CC[C@@H]3CC4(CC[C@@]32C)OOC2(CCCCC2)OO4)[C@@H]2CC[C@H]([C@H](C)CCC(=O)O)[C@@]12C | 6.92 | 25.1 |  |  |  | 
NC(=O)C1CCC2(CC1)OOC1(CCCCC1)OO2 | 115 | 120 |  |  |  | 
COC(=O)CC[C@@H](C)[C@H]1CC[C@H]2[C@@H]3CC[C@@H]4CC5(CC[C@]4(C)[C@H]3C[C@H](OC(C)=O)[C@]12C)OOC1(CCC(C)CC1)OO5 (stereo in doubt; 13) |  |  |  |  | 4.96 | 4.13
COC(=O)CC[C@@H](C)[C@H]1CC[C@H]2[C@@H]3CC[C@@H]4CC5(CC[C@]4(C)[C@H]3C[C@H](OC(C)=O)[C@]12C)OOC1(CCC(C)CC1)OO5 (stereo in doubt; 14) |  |  |  |  | 5.3 | 4.6
